Data from the supplement of paper PMC11451515.

Tested on: NOMO1
Experiment: cell viability relative to DMSO control; higher = less cytotoxic
Settings: 48 h
How it was run: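 Before seeding, each leukemia line was adapted for at least four passages in each medium. NOMO1 or SEM cells (500 cells/well) and P12-Ichikawa cells (1000 cells/well) went into 1536-well plates at 5 μl, then received library compounds in DMSO by pin dosing across 11 threefold concentrations, 47 μM to 0.79 nM. Readout was CellTiter-Glo One luminescence after 48 h at 37°C, and viability is given as a per-plate percentage of DMSO wells, with cell-free wells as background.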

[1] = HPLM + 10% dialyzed FBS, 0.000781 µM
[2] = HPLM + 10% dialyzed FBS, 0.00234 µM
[3] = HPLM + 10% dialyzed FBS, 0.00702 µM
[4] = HPLM + 10% dialyzed FBS, 0.0211 µM
[5] = HPLM + 10% dialyzed FBS, 0.0632 µM
[6] = HPLM + 10% dialyzed FBS, 0.19 µM
[7] = HPLM + 10% dialyzed FBS, 0.569 µM
[8] = HPLM + 10% dialyzed FBS, 1.71 µM
[9] = HPLM + 10% dialyzed FBS, 5.12 µM
[10] = HPLM + 10% dialyzed FBS, 15.4 µM
[11] = HPLM + 10% dialyzed FBS, 46.1 µM
[12] = RPMI 5 mM glucose + 10% FBS, 0.000781 µM
[13] = RPMI 5 mM glucose + 10% FBS, 0.00234 µM
[14] = RPMI 5 mM glucose + 10% FBS, 0.00702 µM
[15] = RPMI 5 mM glucose + 10% FBS, 0.0211 µM
[16] = RPMI 5 mM glucose + 10% FBS, 0.0632 µM
[17] = RPMI 5 mM glucose + 10% FBS, 0.19 µM
[18] = RPMI 5 mM glucose + 10% FBS, 0.569 µM
[19] = RPMI 5 mM glucose + 10% FBS, 1.71 µM
[20] = RPMI 5 mM glucose + 10% FBS, 5.12 µM
[21] = RPMI 5 mM glucose + 10% FBS, 15.4 µM
[22] = RPMI 5 mM glucose + 10% FBS, 46.1 µM
[23] = RPMI 5 mM glucose + 10% dialyzed FBS, 0.000781 µM
[24] = RPMI 5 mM glucose + 10% dialyzed FBS, 0.00234 µM
[25] = RPMI 5 mM glucose + 10% dialyzed FBS, 0.00702 µM
[26] = RPMI 5 mM glucose + 10% dialyzed FBS, 0.0211 µM
[27] = RPMI 5 mM glucose + 10% dialyzed FBS, 0.0632 µM
[28] = RPMI 5 mM glucose + 10% dialyzed FBS, 0.19 µM
[29] = RPMI 5 mM glucose + 10% dialyzed FBS, 0.569 µM
[30] = RPMI 5 mM glucose + 10% dialyzed FBS, 1.71 µM
[31] = RPMI 5 mM glucose + 10% dialyzed FBS, 5.12 µM
[32] = RPMI 5 mM glucose + 10% dialyzed FBS, 15.4 µM
[33] = RPMI 5 mM glucose + 10% dialyzed FBS, 46.1 µM

Structure (SMILES)	cell viability [1] [%]	cell viability [2] [%]	cell viability [3] [%]	cell viability [4] [%]	cell viability [5] [%]	cell viability [6] [%]	cell viability [7] [%]	cell viability [8] [%]	cell viability [9] [%]	cell viability [10] [%]	cell viability [11] [%]	cell viability [12] [%]	cell viability [13] [%]	cell viability [14] [%]	cell viability [15] [%]	cell viability [16] [%]	cell viability [17] [%]	cell viability [18] [%]	cell viability [19] [%]	cell viability [20] [%]	cell viability [21] [%]	cell viability [22] [%]	cell viability [23] [%]	cell viability [24] [%]	cell viability [25] [%]	cell viability [26] [%]	cell viability [27] [%]	cell viability [28] [%]	cell viability [29] [%]	cell viability [30] [%]	cell viability [31] [%]	cell viability [32] [%]	cell viability [33] [%]
COC(=O)C[C@](O)(CCCC(C)(C)O)C(=O)O[C@@H]1C(OC)=CC23CCCN2CCc2cc4c(cc2[C@H]13)OCO4 (stereo not given in full)	114	111	105	108	118	107	117	97.1	96	105	96.6	97.1	93.4	96.3	102	107	98.4	105	101	88.4	93.6	90.1	102	105	104	111	108	109	101	100	102	103	97.8
OC(c1cc(C(F)(F)F)nc2c(C(F)(F)F)cccc12)C1CCCCN1 (stereo not given)	117	124	115	127	146	150	158	142	143	114	8.46																						
CC(C)c1ccc2c(c1)c(SC(C)(C)C)c(CC(C)(C)C(=O)[O-])n2Cc1ccc(Cl)cc1	110	98.7	110	104	109	101	111	95	82	95.1	87.8	84.2	103	92.8	90.4	88.9	96.9	105	87.9	86.3	85.4	85.1	90.5	91.5	91.9	91.6	81.5	87.7	79	81.4	78.5	81.6	75.5
CCN(CC)CCCCNc1ncc2cc(-c3cc(OC)cc(OC)c3)c(NC(=O)NC(C)(C)C)nc2n1	122	136	125	113	111	108	94.8	86.8	104	83.8	33.2																						
CCc1ccc(CCOc2ccc(CC3SC(=O)NC3=O)cc2)nc1 (stereo not given)	125	106	119	134	130	113	111	112	96.7	114	106	112	123	129	120	107	112	99	121	106	107	106											
CN(C)[S+](=O)([O-])c1ccc2c(c1)C(=Cc1cc3c([nH]1)CCCC3)C(=O)N2	124	141	122	128	130	122	122	146	120	127	118	125	112	121	115	109	115	123	111	113	108	105											
FC1=CC=C(C=C1)N2/C=C\C=C(C(=O)NC3=CC=C(OC4=C5C=C[NH]C5=NC=C4)C(=C3)F)/C2=O	97	117	106	108	104	144	114	124	119	122	112	104	111	109	110	112	125	116	138	115	101	120	96.1	92.7	94.5	107	108	108	102	124	106	115	108
O=C1c2ccccc2-[n+]2ccc3c([nH]c4ccccc43)c21	106	114	125	93.1	103	120	104	99.6	62	2.96	2.32	98	115	104	110	112	103	112	108	87	3.28	2.18	91.3	116	107	97.1	98.5	126	101	102	66.4	3.34	2
CN1CCN(C2=Nc3cc(Cl)ccc3Nc3ccccc32)CC1	103	100	110	111	116	119	113	132	112	106	59.3	98.6	94.3	102	98.4	107	101	103	96.3	106	106	102	87.5	99.6	99.7	90.1	115	106	110	99.3	103	97.9	78.4
O=c1[nH]c(=O)n([C@H]2C[C@H](O)[C@@H](CO)O2)cc1/C=C/Br	89.1	108	120	108	123	108	96.2	96.5	79.4	72.4	55.4	93.9	111	97.7	106	114	101	113	117	106	120	110	123	110	102	122	119	114	107	121	134	130	105
CNC(=O)c1ccc(N2C(=S)N(c3cnc(C#N)c(C(F)(F)F)c3)C(=O)C23CCC3)cc1F	79.6	114	103	115	110	116	102	89.8	69.7	64.8	50.2	84.9	113	111	104	105	111	96.3	83.4	79	73.2	60.2	88	109	107	104	99.1	121	123	104	73.3	74	74.2
CC(C)(C)OC(=O)N[C@H]1CCCCC/C=C\[C@@H]2C[C@@]2(C(=O)N[S+](=O)([O-])C2CC2)NC(=O)[C@@H]2C[C@@H](OC(=O)N3Cc4cccc(F)c4C3)CN2C1=O	125	115	124	114	108	121	103	120	114	111	111	96.8	93.3	97.2	100	114	106	113	99.9	94	101	102	97.4	92.7	111	98.5	110	100	123	109	104	90.1	103
